Data taken from US20230031406A1, “COMPOUNDS AND COMPOSITIONS FOR TREATING CONDITIONS ASSOCIATED WITH NLRP ACTIVITY” (Novartis AG, priority 2018, published 2023).

The compounds below were run on PMA-differentiated THP-1 cells (assay: IL-1β production in PMA-differentiated THP-1 cells stimulated with gramicidin (hTHP-1 assay containing 2% fetal bovine serum; Procedures 1 and 2)). Conditions: Table B1; 2% fetal bovine serum; class symbols; read-out: Average IC50 of compounds in hTHP-1 assay: hTHP-1 IC50.
Format: cell-based, human
Description: The following protocol is suitable for testing the activity of the compounds disclosed herein. Procedure 1: IL-1β Production in PMA-Differentiated THP-1 Cells Stimulated with Gramicidin.
THP-1 cells were purchased from the American Type Culture Collection and sub-cultured according to instructions from the supplier. Cells were cultured in complete RPMI 1640 (containing 10% heat inactivated FBS, penicillin (100 units/ml) and streptomycin (100 μg/ml)), and maintained in log phase prior to experimental setup. Prior to the experiment, compounds were dissolved in dimethyl sulfoxide (DMSO) to generate a 30 mM stock. The compound stock was first pre-diluted in DMSO to 3, 0.34, 0.042 and 0.0083 mM intermediate concentrations and subsequently spotted using Echo550 liquid handler into an empty 384-well assay plate to achieve desired final concentration (e.g. 100, 33, 11, 3.7, 1.2, 0.41, 0.14, 0.046, 0.015, 0.0051, 0.0017 μM). DMSO was backfilled in the plate to achieve a final DMSO assay concentration of 0.37%. The plate was then sealed and stored at room temperature until required.
THP-1 cells were treated with PMA (Phorbol 12-myristate 13-acetate) (20 ng/ml) for 16-18 hours. On the day of the experiment the media was removed and adherent cells were detached with trypsin for 5 minutes. Cells were then harvested, washed with complete RPMI 1640, spun down, and resuspended in RPMI 1640 (containing 2% heat inactivated FBS, penicillin (100 units/ml) and streptomycin (100 μg/ml). The cells were plated in the 384-well assay plate containing the spotted compounds at a density of 50,000 cells/well (final assay volume 50 μl). Cells were incubated with compounds for 1 hour and then stimulated with gramicidin (5 μM) (Enzo) for 2 hours. Plates were then centrifuged at 340 g for 5 min. Cell free supernatant (40 μL) was collected using a 96—CHannel PlateMaster (Gilson) and the production of IL-1β was evaluated by HTRF (cisbio). The plates were incubated for 18 h at 4° C. and read using the preset HTRF program (donor emission at 620 nm, acceptor emission at 668 nm) of the SpectraMax i3x spectrophotometer (Molecular Devices, software SoftMax 6). A vehicle only control and a dose titration of CRID3 (100-0.0017 μM) were run concurrently with each experiment.
Procedure 2: IL-1β Production in PMA-Differentiated THP-1 Cells Stimulated with Gramicidin.
THP-1 cells were purchased from the American Type Culture Collection and sub-cultured according to instructions from the supplier. Prior to experiments, cells were cultured in complete RPMI 1640 (containing 10% heat inactivated FBS, penicillin (100 units/ml) and streptomycin (100 μg/ml)), and maintained in log phase prior to experimental setup. Prior to the experiment THP-1 were treated with PMA (Phorbol 12-myristate 13-acetate) (20 ng/ml) for 16-18 hours. Compounds were dissolved in dimethyl sulfoxide (DMSO) to generate a 30mM stock. On the day of the experiment the media was removed and adherent cells were detached with trypsin for 5 minutes. Cells were then harvested, washed with complete RPMI 1640, spun down, resuspended in RPMI 1640 (containing 2% heat inactivated FBS, penicillin (100 units/ml) and streptomycin (100 μg/ml). The cells were plated in a 384-well plate at a density of 50,000 cells/well (final assay volume […]). Compounds were first dissolved in assay medium to obtain a 5× top concentration of 500 μM. 10 step dilutions (1:3) were then undertaken in assay medium containing 1.67% DMSO. 5× compound solutions were added to the culture medium to achieve desired final concentration (e.g. 100, 33, 11, 3.7, 1.2, 0.41, 0.14, 0.046, 0.015, 0.0051, 0.0017 μM). Final DMSO concentration was at 0.37%. Cells were incubated with compounds for 1 hour and then stimulated with gramicidin (5 μM) (Enzo) for 2 hours. Plates were then centrifuged at 340 g for 5 min. Cell free supernatant (40 μL) was collected using a 96—CHannel PlateMaster (Gilson) and the production of IL-1β was evaluated by HTRF (cisbio). […]

| IC50 [nM] | SMILES |
| --- | --- |
| 1000 to 5000 | CC(C)(O)c1cc(F)c(S(N)(=O)=NC(=O)Nc2c3c(nc4c2CCC42CC2)CCC3)s1 (single isomer, unassigned) [Compound 101a, (S) or (R)-3-fluoro-5-(2-hydroxypropan-2-yl)-N′-((1′,5′,6′,7′-tetrahydro-2′H-spiro[cyclopropane-1,3′-dicyclopenta[b,e]pyridin]-8′-yl)carbamoyl)thiophene-2-sulfonimidamide] |
| 8 to 40 | CC(C)(O)c1cc(F)c(S(N)(=O)=NC(=O)Nc2c3c(nc4c2CCC42CC2)CCC3)s1 (single isomer, unassigned) [Compound 101b, (R) or (S)-3-fluoro-5-(2-hydroxypropan-2-yl)-N′-((1′,5′,6′,7′-tetrahydro-2′H-spiro[cyclopropane-1,3′-dicyclopenta[b,e]pyridin]-8′-yl)carbamoyl)thiophene-2-sulfonimidamide] |
| 1000 to 5000 | CC(C)(O)c1cc(F)c(S(N)(=O)=NC(=O)Nc2c3c(nc4c2CCC4(C)C)CCC3)s1 (single isomer, unassigned) [Compound 102a, (S) or (R)-N′-((3,3-dimethyl-1,2,3,5,6,7-hexahydro-dicyclopenta[b,e]pyridin-8-yl)carbamoyl)-3-fluoro-5-(2-hydroxy-propan-2-yl)thiophene-2-sulfonimidamide] |
| 8 to 40 | CC(C)(O)c1cc(F)c(S(N)(=O)=NC(=O)Nc2c3c(nc4c2CCC4(C)C)CCC3)s1 (single isomer, unassigned) [Compound 102b, (R) or (S)-N′-((3,3-dimethyl-1,2,3,5,6,7-hexahydro-dicyclopenta[b,e]pyridin-8-yl)carbamoyl)-3-fluoro-5-(2-hydroxy-propan-2-yl)thiophene-2-sulfonimidamide] |
| 1000 to 5000 | CC1CCc2c1nc1c(c2NC(=O)N=S(N)(=O)c2sc(C(C)(C)O)cc2F)CCC1 (single isomer, unassigned) [Compound 103aa, (S,R) or (S,S)-3-fluoro-5-(2-hydroxypropan-2-yl)-N′-((3-methyl-1,2,3,5,6,7-hexahydrodicyclo-penta[b,e]pyridin-8-yl)carbamoyl)thiophene-2-sulfonimidamide] |
| 5000 to 30000 | CC1CCc2c1nc1c(c2NC(=O)N=S(N)(=O)c2sc(C(C)(C)O)cc2F)CCC1 (single isomer, unassigned) [Compound 103ab, (S,S) or (S,R)-3-fluoro-5-(2-hydroxypropan-2-yl)-N′-((3-methyl-1,2,3,5,6,7-hexahydrodicyclo-penta[b,e]pyridin-8-yl)carbamoyl)thiophene-2-sulfonimidamide] |
| 8 to 40 | CC1CCc2c1nc1c(c2NC(=O)N=S(N)(=O)c2sc(C(C)(C)O)cc2F)CCC1 (single isomer, unassigned) [Compound 103ba, (R,R) or (R,S)-3-fluoro-5-(2-hydroxypropan-2-yl)-N′-((3-methyl-1,2,3,5,6,7-hexahydrodicyclo-penta[b,e]pyridin-8-yl)carbamoyl)thiophene-2-sulfonimidamide] |
| 200 to 1000 | CC1CCc2c1nc1c(c2NC(=O)N=S(N)(=O)c2sc(C(C)(C)O)cc2F)CCC1 (single isomer, unassigned) [Compound 103bb, (R,S) or (R,R)-3-fluoro-5-(2-hydroxypropan-2-yl)-N′-((3-methyl-1,2,3,5,6,7-hexahydrodicyclo-penta[b,e]pyridin-8-yl)carbamoyl)thiophene-2-sulfonimidamide] |
| 200 to 1000 | Cc1sc(S(N)(=O)=NC(=O)Nc2c3c(nc4c2CCC4C)CCC3)nc1C(C)(C)O (single isomer, unassigned) [Compound 104a, (R,R/S) or (S,R/S)-4-(2-hydroxypropan-2-yl)-5-methyl-N′-((3-methyl-1,2,3,5,6,7-hexahydrodicyclo-penta[b,e]pyridin-8-yl)carba-moyl)thiazole-2-sulfonimidamide] |
| 5000 to 30000 | Cc1sc(S(N)(=O)=NC(=O)Nc2c3c(nc4c2CCC4C)CCC3)nc1C(C)(C)O (single isomer, unassigned) [Compound 104b, (S,R/S) or (R,R/S)-4-(2-hydroxypropan-2-yl)-5-methyl-N′-((3-methyl-1,2,3,5,6,7-hexahydrodicyclo-penta[b,e]pyridin-8-yl)carbamoyl)thiazole-2-sulfonimidamide] |
| 40 to 200 | CC(C)(O)c1cc(F)c(S(N)(=O)=NC(=O)Nc2c3c(nc4c2CCC4)CCC3)s1 (single isomer, unassigned) [Compound 105a, (R) or (S)-3-fluoro-N′-((1,2,3,5,6,7-hexahydro-dicyclopenta[b,e]pyridin-8-yl)carbamoyl)-5-(2-hydroxypropan-2-yl)thio-phene-2-sulfonimidamide] |
| 1000 to 5000 | CC(C)(O)c1cc(F)c(S(N)(=O)=NC(=O)Nc2c3c(nc4c2CCC4)CCC3)s1 (single isomer, unassigned) [Compound 105b, (S) or (R)-3-fluoro-N′-((1,2,3,5,6,7-hexahydro-dicyclopenta[b,e]pyridin-8-yl)carbamoyl)-5-(2-hydroxypropan-2-yl)thio-phene-2-sulfonimidamide] |
| 40 to 200 | CC(C)c1ncc(F)c(C(C)C)c1NC(=O)N=S(N)(=O)c1sc(C(C)(C)O)cc1F (single isomer, unassigned) [Compound 106a, (R) or (S)-3-fluoro-N′-((5-fluoro-2,4-diisopropylpyridin-3-yl)carbamoyl)-5-(2-hydroxypropan-2-yl)thiophene-2-sulfonimidamide] |
| 1000 to 5000 | CC(C)c1ncc(F)c(C(C)C)c1NC(=O)N=S(N)(=O)c1sc(C(C)(C)O)cc1F (single isomer, unassigned) [Compound 106b, (S) or (R)-3-fluoro-N′-((5-fluoro-2,4-diisopropylpyridin-3-yl)carbamoyl)-5-(2-hy-droxypropan-2-yl)thiophene-2-sulfonimidamide] |
| 200 to 1000 | Cc1sc(S(N)(=O)=NC(=O)Nc2c3c(nc4c2CCC4)CCC3)cc1C(C)(C)O (single isomer, unassigned) [Compound 107a, (R) or (S)-N′-((1,2,3,5,6,7-hexahydrodicyclo-penta[b,e]pyridin-8-yl)carbamoyl)-4-(2-hydroxypropan-2-yl)-5-methylthiophene-2-sulfonimidamide] |
| 5000 to 30000 | Cc1sc(S(N)(=O)=NC(=O)Nc2c3c(nc4c2CCC4)CCC3)cc1C(C)(C)O (single isomer, unassigned) [Compound 107b, (S) or (R)-N′-((1,2,3,5,6,7-hexahydrodicyclo-penta[b,e]pyridin-8-yl)carbamoyl)-4-(2-hydroxypropan-2-yl)-5-methylthiophene-2-sulfonimidamide] |
| 40 to 200 | CC(C)(O)c1csc(S(N)(=O)=NC(=O)Nc2c3c(nc4c2CCC42CC2)CCC3)c1 (single isomer, unassigned) [Compound 114a, (R) or (S)-4-(2-hydroxy-propan-2-yl)-N′-((1′,5′,6′,7′-tetrahydro-2′H-spiro[cyclopropane-1,3′-dicyclopenta[b,e]pyridin]-8′-yl)carbamoyl)thiophene-2-sulfonimidamide] |
| 1000 to 5000 | CC(C)(O)c1csc(S(N)(=O)=NC(=O)Nc2c3c(nc4c2CCC42CC2)CCC3)c1 (single isomer, unassigned) [Compound 114b, (S) or (R)-4-(2-hydroxy-propan-2-yl)-N′-((1′,5′,6′,7′-tetrahydro-2′H-spiro[cyclopropane-1,3′-dicyclopenta[b,e]pyridin]-8′-yl)carbamoyl)thiophene-2-sulfonimidamide] |
